The numbers were not newly measured in US20250134380A1, “DETECTION AND LOCALIZATION OF DISEASE UTILIZING FLUORESCENCE SPECTRA OF EXOGENOUS FLUOROPHORES” (PREVIEW MEDICAL INC., priority 2022, published 2025), which cites them from elsewhere.

The subject of this data set is hyperthermia treated tumor. The settings on record: animal models; hyperthermia treated vs non-hyperthermia treated tumors.

As to `CC1(C)C(/C=C/C=C/C=C/C=C2\N(CCCCS(=O)(=O)O)c3ccc4ccccc4c3C2(C)C)=[N+](CCCCS(=O)(=O)[O-])c2ccc3ccccc3c21` [ICG, Indocyanine green], the “ICG uptake in hyperthermia treated tumor relative to non-hyperthermia treated tumors” value is 1.23 times.
